According to patent US5460977A, “Peptide having allergenicity” (Torii & Co., priority 1992, dated 1995):
Positions of bridges follow the written chain, without caps; N, C: chain ends. Residues, ends and D or L forms follow the SMILES beside them. Chains are numbered I, II in the order given.

Columns and labels:
[1] = system: peripheral blood lymphocytes of non-allergic subject; assay: Blast formation of lymphocytes (3H-thymidine incorporation), non-allergic subject; type: cell-based, human; details: Specimen 4, lymphocytes of non-allergic subject; 7 days culture with peptide, 3H-thymidine overnight
Description: (§1) Blast formation of lymphocytes by peptides of formula I-V of the present invention
(§2) Peripheral blood lymphocytes collected from a mite-allergic patient or a non-allergic subject were suspended in a cell culture medium RPMI 1640 supplemented with 10% fetal bovine serum, so as to give a suspension of 1×10^6 cells/ml. Then, the suspension (0.2 ml/well) prepared above was placed in a 96-well microplate for cell culture and further, 20 μl each of a solution of one of the peptides of the formula I-V was placed in the respective wells. The lymphocytes thus treated were cultivated in a humidified atmosphere containing 5% CO2 at 37° C. for 7 days. Thereafter, 20 μl of a ^3 H-thymidine solution (12.5 μCi/ml) was added to each of the wells and allowed to react overnight. The peripheral blood lymphocytes were then collected onto filter, and the radioactivity was measured by a liquid scintillation counter.
(§3) As is apparent from Table 1, virtually no incorporation of ^3 H-thymidine was recognized in the peripheral blood lymphocyte of a non-allergic subject, while a high radioactivity was detected from the peripheral blood lymphocytes of a mite-allergic patient.

[2] = system: peripheral blood lymphocytes of mite-allergic patient; assay: Blast formation of lymphocytes (3H-thymidine incorporation), mite-allergic patients; type: cell-based, human; details: 7 days culture with peptide, 3H-thymidine overnight; for radioactivity of 3H-thymidine incorporated into lymphocytes, Specimen 1: Specimen 1, lymphocytes of mite-allergic patient; for radioactivity of 3H-thymidine incorporated into lymphocytes, Specimen 2: Specimen 2, lymphocytes of mite-allergic patient; for radioactivity of 3H-thymidine incorporated into lymphocytes, Specimen 3: Specimen 3, lymphocytes of mite-allergic patient
Description: as §1, §2, §3

Compound	radioactivity of 3H-thymidine incorporated into lymphocytes, Specimen 4 [1]	radioactivity of 3H-thymidine incorporated into lymphocytes, Specimen 1 [2]	radioactivity of 3H-thymidine incorporated into lymphocytes, Specimen 2 [2]	radioactivity of 3H-thymidine incorporated into lymphocytes, Specimen 3 [2]
CC[C@H](C)[C@H](NC(=O)[C@H](C)NC(=O)[C@H](CSSC[C@H](NC(=O)[C@H](C)NC(=O)[C@H](CC(C)C)NC(=O)[C@@H](NC(=O)CN)C(C)C)C(=O)N[C@@H](C)C(=O)N[C@H](C(=O)N[C@@H](C)C(=O)N[C@H](C(=O)N[C@@H](Cc1c[nH]cn1)C(=O)N[C@@H](C)C(=O)N[C@@H](CCCCN)C(=O)N[C@H](C(=O)N[C@@H](CCCNC(=N)N)C(=O)N[C@@H](CC(=O)O)C(=O)O)[C@@H](C)CC)[C@@H](C)O)[C@@H](C)CC)NC(=O)[C@H](C)NC(=O)[C@H](CC(C)C)NC(=O)[C@@H](NC(=O)CN)C(C)C)C(=O)N[C@@H](C)C(=O)N[C@H](C(=O)N[C@@H](Cc1c[nH]cn1)C(=O)N[C@@H](C)C(=O)N[C@@H](CCCCN)C(=O)N[C@H](C(=O)N[C@@H](CCCNC(=N)N)C(=O)N[C@@H](CC(=O)O)C(=O)O)[C@@H](C)CC)[C@@H](C)O [IV] (I: H-GVLACAIATHAKIRD-OH / II: H-GVLACAIATHAKIRD-OH; disulfide I:5-II:5)	< 100 cpm	374 cpm	324 cpm	162 cpm
CC[C@H](C)[C@H](NC(=O)[C@H](CCC(=O)O)NC(=O)[C@H](CC(N)=O)NC(=O)[C@H](CC(N)=O)NC(=O)[C@H](C)NC(=O)[C@H](CSSC[C@H](NC(=O)[C@H](CC(=O)O)NC(=O)[C@H](CCCCN)NC(=O)[C@@H](NC(=O)[C@H](CC(=O)O)NC(=O)[C@@H](NC(=O)[C@H](CCC(N)=O)NC(=O)[C@@H](N)CC(=O)O)C(C)C)C(C)C)C(=O)N[C@@H](C)C(=O)N[C@@H](CC(N)=O)C(=O)N[C@@H](CC(N)=O)C(=O)N[C@@H](CCC(=O)O)C(=O)N[C@H](C(=O)N[C@@H](CCCCN)C(=O)N[C@@H](CCCCN)C(=O)O)[C@@H](C)CC)NC(=O)[C@H](CC(=O)O)NC(=O)[C@H](CCCCN)NC(=O)[C@@H](NC(=O)[C@H](CC(=O)O)NC(=O)[C@@H](NC(=O)[C@H](CCC(N)=O)NC(=O)[C@@H](N)CC(=O)O)C(C)C)C(C)C)C(=O)N[C@@H](CCCCN)C(=O)N[C@@H](CCCCN)C(=O)O [II] (I: H-DQVDVKDCANNEIKK-OH / II: H-DQVDVKDCANNEIKK-OH; disulfide I:8-II:8)	< 100 cpm	219 cpm	125 cpm	158 cpm
H-GVLACAIATHAKIRD-OH [III, H-Gly-Val-Leu-Ala-Cys-Ala-Ile-Ala-Thr-His-Ala-Lys-Ile-Arg-Asp-OH]	< 100 cpm	547 cpm	259 cpm	158 cpm
CC[C@H](C)[C@H](NC(=O)[C@H](C)NC(=O)[C@H](CSSC[C@H](NC(=O)[C@H](CC(=O)O)NC(=O)[C@H](CCCCN)NC(=O)[C@@H](NC(=O)[C@H](CC(=O)O)NC(=O)[C@@H](NC(=O)[C@H](CCC(N)=O)NC(=O)[C@@H](N)CC(=O)O)C(C)C)C(C)C)C(=O)N[C@@H](C)C(=O)N[C@@H](CC(N)=O)C(=O)N[C@@H](CC(N)=O)C(=O)N[C@@H](CCC(=O)O)C(=O)N[C@H](C(=O)N[C@@H](CCCCN)C(=O)N[C@@H](CCCCN)C(=O)O)[C@@H](C)CC)NC(=O)[C@H](C)NC(=O)[C@H](CC(C)C)NC(=O)[C@@H](NC(=O)CN)C(C)C)C(=O)N[C@@H](C)C(=O)N[C@H](C(=O)N[C@@H](Cc1c[nH]cn1)C(=O)N[C@@H](C)C(=O)N[C@@H](CCCCN)C(=O)N[C@H](C(=O)N[C@@H](CCCNC(=N)N)C(=O)N[C@@H](CC(=O)O)C(=O)O)[C@@H](C)CC)[C@@H](C)O [V] (I: H-DQVDVKDCANNEIKK-OH / II: H-GVLACAIATHAKIRD-OH; disulfide I:8-II:5)	< 100 cpm	1457 cpm	430 cpm	179 cpm
H-DQVDVKDCANNEIKK-OH [I, H-Asp-Gln-Val-Asp-Val-Lys-Asp-Cys-Ala-Asn-Asn-Glu-Ile-Lys-Lys-OH]	< 100 cpm	281 cpm	389 cpm	282 cpm
